From patent US9340840B2, “Use of selected lactic acid bacteria for reducing infantile colic” (Biogaia AB, priority 2006, dated 2016)

What was measured:
[1] = tested on: Breast-fed infants with a diagnosis of infantile colic; experiment: Selected probiotic strains versus Simethicone in the treatment of infantile colic (crying time, 28 days); assay type: in vivo, human; settings: for Crying time (mean minutes per day): N = 30 per group
Excerpt: Breast-fed infants with a diagnosis of infantile colic are recruited in the Department of Pediatric and Adolescence Science (Drottning Silvias University Hospital, Goteborg). Patients aged 21-90 days, adequate for gestational age with a birth weight between 2500 and 4000 g, with colic symptoms satisfying the Wessel's criteria, and arisen almost 6±1 days before the enrollment, are considered for inclusion in the study (Wessel M A, Cobb J C, Jackson E B, Harris G S, Detwiler A C. Paroxismal fussing in infancy, sometimes called “colic”. Pediatrics 1954; 14: 421-35). All infants enrolled are exclusively breast-fed in order to reduce variability in the intestinal microflora due to variations in the diet, which may in turn have influenced the response to the probiotic. Infants are excluded if they had clinical evidence of chronic illness or gastrointestinal disorders or if they had received either antibiotics or probiotics in the week preceding recruitment.
In this study, colicky infants are randomized to receive the probiotic or Simethicone in the following treatments:
L. reuteri is administered at a dose of 10^8 colony forming units (CFU) in 5 drops of a commercially available MCT-oil (medium chain tri-glyceride oil) suspension 30 min after feeding, once a day for 28 days. MCT oils occur naturally, and the most abundant source is coconut oil. Most MCT oil is refined from coconut oil. MCT oil is a clear light colored liquid with no flavor and low viscosity. This oil suspension is stable for 21 months at 2-8° C. (as documented by the manufacturer, BioGaia AB, Stockholm, Sweden) (alternative source of MCT oil is Akomed R, by Karlshamns AB, Karlshamn, Sweden). During the study, parents are instructed to keep the product in the refrigerator when not in use. Simethicone (S) was given at a dose of 60 mg/day in 3 mL of a commercially available solution (Mylicon Infants Gas Relief Drops, J&J, 7050 Camp Hill Rd., Fort Washington, Pa., 19034-2210, USA) after feeding, twice a day for 28 days. At the enrollment, all mothers are asked to follow a cows' milk-free diet as reported: avoidance of milk, yogurt, fresh and strong cheese, cream, butter, biscuits. Adherence to the diet is monitored with a diet diary maintained for all the treatment period. At day 7, 14, 21 and 28 one of the researches examined the compliance to this diet.
The day on which the pediatrician saw the infant for the first time is defined as Day-1. On this occasion each infant underwent a medical examination and the parents were interviewed in order to obtain background data concerning type of delivery, birth weight and gestational age, family history of gastrointestinal disease and atopy. In particular, the last one is considered positive if the infants had one or more family members (mother, father and/or older sibling) with atopic eczema, allergic rhinitis or asthma. Moreover, any signs and symptoms of atopic disease during the study period were recorded. Parents were also invited to record data concerning daily average crying time and number of colic episodes on the day after the recruitment (Day 0). The doctor randomly assigned the child to any of the study groups. Administration of study products began on Day 1.
Parents are given written information about the study and are asked to record daily number of inconsolable crying episodes and their duration, stool consistency and frequency as well as any observed side effects (constipation, vomiting, cutaneous reactions, etc) starting from Day 0 up to Day 28, using a structured diary. In order to ensure that all the parents noted crying time in a uniform way and to ensure that the infants are given the medication correctly, one of the researchers is always available by phone to help parents.
Each patient is re-examined by the same pediatrician on Days 1, 7, 14, 21 and 28.

[2] = tested on: colicky symptoms in breast-fed infants; settings: within 7 days of treatment; cited from earlier work

Substance: dimethylpolysiloxane [Simethicone]
- withdrawal because of any side effect related to the trial ([1]; 28 days treatment, 30 infants per group): No babies are withdrawn because of any side effect
- Crying time (mean minutes per day) ([1]; Day 0 (before administration), colicky infants): 205 minutes per day
- Crying time (mean minutes per day) ([1]; Day 1, colicky infants): 194 minutes per day
- Crying time (mean minutes per day) ([1]; Day 7, colicky infants): 172 minutes per day
- Crying time (mean minutes per day) ([1]; Day 14, colicky infants): 155 minutes per day
- Crying time (mean minutes per day) ([1]; Day 21, colicky infants): 148 minutes per day
- Crying time (mean minutes per day) ([1]; Day 28, colicky infants): 141 minutes per day
- response rate to the treatment [2]: 7%
